Data from publication PMC11413854, “Reversible Control of Native GluN2B-Containing NMDA Receptors with Visible Light” (ACS Chemical Neuroscience, 2024).
Several values for one entry are separate records, joined by “and”; a condition that tells them apart may be missing. Equal entries are not always repeated. Where two headings read alike, the source gives them in different places.

Tests used:
GluA1 AMPA receptors = target: T1, GluA1 AMPA receptors (Rattus norvegicus, UniProt P19490); experiment: TEVC on Xenopus oocytes, GluA1 AMPA receptors; assay type: cell-based; details: for Inhibition, individual values: GluA1, single cells
T1 construct: expressed in transfected cells; host or cells: Xenopus laevis oocytes (mRNA injection)
T1 sequence (P19490 19-907): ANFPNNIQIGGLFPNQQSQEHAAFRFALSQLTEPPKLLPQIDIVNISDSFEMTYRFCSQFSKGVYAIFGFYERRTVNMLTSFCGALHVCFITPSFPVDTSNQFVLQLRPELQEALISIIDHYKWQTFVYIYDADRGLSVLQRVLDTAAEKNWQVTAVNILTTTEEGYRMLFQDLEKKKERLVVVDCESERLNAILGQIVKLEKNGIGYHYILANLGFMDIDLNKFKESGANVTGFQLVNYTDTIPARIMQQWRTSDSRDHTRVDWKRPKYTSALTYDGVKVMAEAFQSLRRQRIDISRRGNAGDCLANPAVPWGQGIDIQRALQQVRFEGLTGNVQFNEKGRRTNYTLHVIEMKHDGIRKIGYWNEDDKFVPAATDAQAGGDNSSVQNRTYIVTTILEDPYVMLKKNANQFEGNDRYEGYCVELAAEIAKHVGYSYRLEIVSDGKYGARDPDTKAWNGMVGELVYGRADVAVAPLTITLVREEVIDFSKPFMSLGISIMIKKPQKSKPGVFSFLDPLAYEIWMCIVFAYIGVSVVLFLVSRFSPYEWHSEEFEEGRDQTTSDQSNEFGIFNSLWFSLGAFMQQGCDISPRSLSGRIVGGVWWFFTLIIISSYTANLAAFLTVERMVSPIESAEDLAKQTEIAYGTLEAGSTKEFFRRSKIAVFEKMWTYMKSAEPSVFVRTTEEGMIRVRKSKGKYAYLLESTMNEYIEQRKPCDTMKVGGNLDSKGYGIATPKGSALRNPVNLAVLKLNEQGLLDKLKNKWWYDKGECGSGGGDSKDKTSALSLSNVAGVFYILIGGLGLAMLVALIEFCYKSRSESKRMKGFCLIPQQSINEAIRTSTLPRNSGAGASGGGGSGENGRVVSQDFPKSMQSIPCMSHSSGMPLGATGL
From the text: (§1) We used cDNA coding for rat GluN1–1a (named GluN1 herein) (GenBank: U08261.1), rat GluN2A (GenBank: D13211.1), mouse GluN2B (GenBank: D10651.2), rat GluA1 flop (GenBank: M36418.2), and rat Myc-GluA2(Q)-flip (GenBank: AF164344.1) cloned into pcDNA3-based expression plasmids. GluK2 (GenBank: Z11548.1) corresponds to the fully RNA-edited version.[80] The GluN2B-ΔNTD construct is from ref[45] and GluN2B–N615K is from ref[81]. Single mutants GluN2B-Q110G and GluN1-L135H were from ref[19]. The GluA2 cDNA contains a Myc tag ([…]) fused between the signal peptide and the N-terminus sequences, and the GluA2 subunit is […] for its Q/R/N site (GluA2(Q)) to allow permeation of homomeric GluA2 receptors.[2] cDNAs coding for rat GluN2C (GenBank: M91563.1) and GluN2D subunits (GenBank: L31611.1) were in prK5 plasmids.
(§2) The expression of recombinant GluA1, GluA2(Q), and GluK2 receptors was obtained by oocyte injection of 50 nL of mRNAs (at 1 μg/μL). mRNAs were generated using the T7 (GluA1 and GluA2) and T3 (GluK2) mMessage mMachine transcription kits (Invitrogen) after cDNA linearization with the SacII restriction enzyme. The injected oocytes were stored in the same conditions as for NMDARs and used 72–96 h postinjection.
(§3) TEVC recordings were performed 1–3 days following injection. TEVC recordings were performed using an Oocyte Clamp amplifier OC-725 (Warner Instruments) and computer-controlled via a 1440A Digidata (Molecular Devices). Currents were sampled at 100 Hz and low-pass-filtered at 20 Hz using an 8-pole Bessel filter (900 Series, Frequency Devices Inc.). Data were collected with Clampfit 10.3. During the recording, the cells were continuously perfused with external recording Ringer solution at pH 7.3 (in mM: 100 NaCl, 0.3 BaCl2, 5 HEPES, and 2.5 KCl, pH adjustment to 7.3 by the addition of NaOH). The NMDA currents were induced by simultaneous application of L-glutamate and glycine (agonist solution) at saturating concentration (100 μM each), and DTPA (10 μM) to prevent receptor inhibition by ambient zinc (∼20 nM).[83] A control solution (100 μM glycine and 10 μM DTPA in Ringer pH 7.3) was used for washout of drug and test solutions. AMPA and kainate receptor currents were induced in the same conditions as NMDA currents (100 μM glutamate and glycine + 10 μM DTPA). Oocytes expressing GluK2 kainate receptors were treated with concanavalin A ([…], equivalent to 1.1 mg/mL) during 10 min before recording to decrease receptor desensitization. Unless notified, recordings were performed at a holding potential of −60 mV. All experiments were performed at room temperature. […]

GluA2 AMPA receptors = target: T2, GluA2 AMPA receptors (Rattus norvegicus, UniProt P19491); experiment: TEVC on Xenopus oocytes, GluA2 AMPA receptors; assay type: cell-based; parameters: Inhibition, individual values: scale not given here; details: for Inhibition, individual values: GluA2, single cells
T2 construct: expressed in transfected cells; host or cells: Xenopus laevis oocytes (mRNA injection)
T2 sequence (P19491 22-883 isoform P19491-2 limits assumed): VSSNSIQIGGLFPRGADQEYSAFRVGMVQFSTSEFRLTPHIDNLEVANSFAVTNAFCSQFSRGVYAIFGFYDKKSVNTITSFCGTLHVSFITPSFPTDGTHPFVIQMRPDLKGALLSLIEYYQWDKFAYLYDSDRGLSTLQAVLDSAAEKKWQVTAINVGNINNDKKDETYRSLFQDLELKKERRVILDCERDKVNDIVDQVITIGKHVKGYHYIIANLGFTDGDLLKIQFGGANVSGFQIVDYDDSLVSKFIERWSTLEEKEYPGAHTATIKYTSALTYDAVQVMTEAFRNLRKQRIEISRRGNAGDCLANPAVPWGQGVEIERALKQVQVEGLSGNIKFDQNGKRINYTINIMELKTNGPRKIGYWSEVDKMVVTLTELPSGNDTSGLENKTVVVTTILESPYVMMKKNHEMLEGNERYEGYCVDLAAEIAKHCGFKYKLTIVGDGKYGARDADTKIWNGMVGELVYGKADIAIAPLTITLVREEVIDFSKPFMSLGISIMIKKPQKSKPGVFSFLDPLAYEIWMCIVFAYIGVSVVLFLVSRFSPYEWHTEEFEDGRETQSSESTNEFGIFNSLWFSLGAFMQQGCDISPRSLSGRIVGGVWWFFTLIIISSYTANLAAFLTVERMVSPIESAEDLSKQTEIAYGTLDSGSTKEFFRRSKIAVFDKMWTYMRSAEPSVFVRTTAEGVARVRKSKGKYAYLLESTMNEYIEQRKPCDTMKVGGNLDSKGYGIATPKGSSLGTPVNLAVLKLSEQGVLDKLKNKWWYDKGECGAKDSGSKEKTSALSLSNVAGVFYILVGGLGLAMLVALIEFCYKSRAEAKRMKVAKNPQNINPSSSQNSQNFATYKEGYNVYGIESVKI
From the text: as §1, §2, §3

[1] = 10 µM OptoNAM-3 dark PSS (trans) as headed, second block
[2] = 10 µM OptoNAM-3 dark PSS (trans), first block

- inhibition at 10 µM (GluA1 AMPA receptors; 10 µM OptoNAM-3 365 nm PSS, construct GluA1, read-out: Inhibition (%)): -6%
- Inhibition, individual values (GluA1 AMPA receptors; [1]): -0.02846 and -0.1048 and -0.04691
- Inhibition, individual values (GluA1 AMPA receptors; [2]): -0.02273 and -0.0986 and -0.1111
- inhibition at 10 µM (GluA1 AMPA receptors; 10 µM OptoNAM-3 dark PSS (trans), construct GluA1, read-out: Inhibition (%)): -7.7%
- inhibition of GluA1 currents (GluA1 AMPA receptors; 10 µM, dark PSS): no effect
- inhibition at 10 µM (GluA1 AMPA receptors; 10 µM, dark PSS, read-out: inhibition of GluA1 currents): -7.4 ± 2.7%
- inhibition at 10 µM (GluA2 AMPA receptors; 10 µM OptoNAM-3 365 nm PSS, construct GluA2, read-out: Inhibition (%)): -4.9%
- inhibition at 10 µM (GluA2 AMPA receptors; 10 µM OptoNAM-3 dark PSS (trans), construct GluA2, read-out: Inhibition (%)): -7.4%
- inhibition of GluA2 currents (GluA2 AMPA receptors; 10 µM, dark PSS): no effect
- inhibition at 10 µM (GluA2 AMPA receptors; 10 µM, dark PSS, read-out: inhibition of GluA2 currents): -7.4 ± 3.5%
SMILES: c1ccc(/N=N/c2ccc(CCNc3ccncc3)cc2)cc1 [OptoNAM-3, (E)-N-(4-(Phenyldiazenyl)phenethyl)pyridin-4-amine]
- Inhibition, individual values (GluA2 AMPA receptors; [1]): -0.00171 and -0.04016 and -0.1082 and -0.02166 and -0.07608 and -0.04674
- Inhibition, individual values (GluA2 AMPA receptors; [2]): -0.007761 and -0.14 and -0.08034 and -0.01769 and -0.2089 and 0.009857
